Measured values taken from publication PMC10041525, “New Dual Inhibitors of Bacterial Topoisomerases with Broad-Spectrum Antibacterial Activity and In Vivo Efficacy against Vancomycin-Intermediate Staphylococcus aureus” (Journal of Medicinal Chemistry, 2023).
≈ marks a conversion by molar mass, not a printed value. Where “and” joins values, the source holds several entries; their conditions need not be identical. Equal values may be shown once. Read-outs that look alike come from different tables or passages of the source.

Columns and labels:
[1] = tested on: 3 sensitive and 7 MDR A. baumannii clinical isolates; assay: MIC, Hungarian clinical isolates and controls (384-well); type: cell-based
P. aeruginosa ATCC 27853 = assay: IHMA QC MIC; type: cell-based; details: for MIC: Pseudomonas aeruginosa
physchem = type: physicochemical
Description: For the PBS, 2.38 g of disodium hydrogen phosphate dodecahydrate, 0.19 g of potassium dihydrogen phosphate, and 8.0 g of sodium chloride were added to distilled water (900 mL), and the solution was mixed overnight. […] Samples were prepared by weighing the exact mass of solid compounds (about 1 mg), and then, the appropriate volume of PBS was added to reach the final concentration of ∼1 mg/mL. […] The supernatant was diluted 3× with a 1:1 mixture of 0.1% TFA in water and acetonitrile and analyzed by HPLC. For the 7-point calibration curves, concentrated stock solutions of the compounds were prepared at concentrations of 10 and 0.5 mM in DMSO, which were diluted with a 1:1 mixture of 0.1% TFA in water and acetonitrile to the desired final concentrations and analyzed by HPLC. Results are given in μM as an average value of two independent experiments. For details on calibration curves, concentrations, analytical method, and HPLC method, see the Supporting Information.
Thermodynamic solubility assay
To determine thermodynamic solubility of compounds in PBS, calibration curves for the assayed compounds were prepared using seven concentrations. First, DMSO stock solutions of compounds at 10 mM and 0.5 mM concentration were prepared and then diluted (0.1% TFA in […]
Quality control (QC) samples were diluted from stock solutions with a 1:1 mixture of 0.1% TFA in water and acetonitrile to final concentrations of 60 µM, 20 µM, and 2 µM (6 µM, 2 µM, and 0.2 µM for 7f or 0.6 µM, 0.2 µM, and 0.02 µM for 7g).
Analytical reversed-phase UHPLC analyses were performed on Thermo Scientific Dionex UltiMate 3000 modular system (Thermo Fisher Scientific Inc., MA, USA). Waters Acquity UPLC® HSS C18 SB column (2.1 × 50 mm, 1.8 μm; Waters, Milford, MA, USA) was used at T […]
Mobile phase consisted of 0.1% trifluoroacetic acid in ultrapure water (solvent A) and acetonitrile […]
The obtained data was processed in Chromeleon CDS software (Thermo Fisher Scientific Inc., […]
Analytical method was tested for accuracy, precision and linear rang. Accuracy was […]
(or 2 or 0.2) µM and 60 (or 6 or 0.6) µM) to their true values and expressed in (%). Values were […]
Method repeatability was determined by calculating the RSD from the separately prepared and analysed quality control samples (n = 3). […] Linearity of the […]
method (1 (or 0.1 or 0.01) µM to 100 (or 10 or 1) µM) was evaluated from the 7-point calibration […]
Solubility was determined in two independent experiments and results were calculated in […]

[2] = ATCC27853, QC strain P. aeruginosa ATCC 27853, test date 2021-11-11
[3] = ATCC27853, QC strain P. aeruginosa ATCC 27853, test date 2021-11-26
[4] = pH 7.4, thermodynamic solubility (pH = 7.4)

Cc1[nH]c(C(=O)Nc2nc3c(N4[C@@H]5CC[C@H]4COC5)cc(C(=O)O)cc3s2)c(Cl)c1Cl [7h, 4-((1R,5S)-3-Oxa-8-azabicyclo[3.2.1]octan-8-yl)-2-(3,4-dichloro-5-methyl-1H-pyrrole-2-carboxamido)benzo[d]thiazole-6-carboxylic Acid]
Cumulative % at MIC [1]: 100% | MIC (QC, repeated tests) (P. aeruginosa ATCC 27853): 4 µg/mL (≈ 8.31 µM) | MIC (P. aeruginosa ATCC 27853; [2]): 16 µg/mL (≈ 33.2 µM) | MIC (P. aeruginosa ATCC 27853; [3]): 8 µg/mL (≈ 16.6 µM) | MIC (P. aeruginosa ATCC 27853; ATCC27853, read-out: MIC (QC, repeated tests)): 8 µg/mL (≈ 16.6 µM) | solubility thermodynamic at 24 h (physchem; [4]): 3.8 µM (≈ 1.83 µg/mL) | solubility thermodynamic at 24 h (physchem; pH 7.4, thermodynamic solubility, Experiment 1): 3.83 µM (≈ 1.84 µg/mL) | solubility thermodynamic at 24 h (physchem; pH 7.4, thermodynamic solubility, Experiment 2): 3.8 µM (≈ 1.83 µg/mL)

Cc1[nH]c(C(=O)Nc2nc3c(N4CCOCC4)cc(C(=O)O)cc3s2)c(Cl)c1Cl [7a, 2-(3,4-Dichloro-5-methyl-1H-pyrrole-2-carboxamido)-4-morpholinobenzo[d]thiazole-6-carboxylic Acid]
Cumulative % at MIC [1]: 80% and 100% | MIC (P. aeruginosa ATCC 27853; [2]): 64 µg/mL (≈ 141 µM) | MIC (P. aeruginosa ATCC 27853; [3]): 16 µg/mL (≈ 35.1 µM) | solubility thermodynamic (physchem; pH 7.4, PBS pH 7.4, read-out: thermodynamic solubility, Experiment 1): 100 µM (≈ 45.5 µg/mL) | solubility thermodynamic (physchem; pH 7.4, PBS pH 7.4, read-out: thermodynamic solubility, Experiment 2): 96.6 µM (≈ 44 µg/mL) | solubility thermodynamic (physchem; [4]): 98.3 µM (≈ 44.8 µg/mL) | solubility thermodynamic at 48 h (physchem; [4]): 98 µM (≈ 44.6 µg/mL)
